From patent US8815829B2, “3′-azido purine nucleotide prodrugs for treatment of viral infections” (priority 2008, dated 2014)
Like-named read-outs stand apart in the source and are kept apart here.

What was measured:
[1] = tested on: PBM cells; experiment: Cytotoxicity assay in PBM cells; assay type: cell-based, human; conditions: Homo sapiens, PBMC; Table 5; read-out: Toxicity IC50 PBM
[2] = tested on: Vero cells; experiment: Cytotoxicity assay in Vero cells; assay type: cell-based; conditions: Chlorocebus sabaeus, Vero, read-out: Toxicity IC50 Vero
[3] = tested on: HIV-2/pROD10; experiment: HIV-2 drug susceptibility in PBM cells; assay type: cell-based; conditions: Human immunodeficiency virus 2, PBMC
[4] = tested on: CEM cells; experiment: Cytotoxicity assay in CEM cells; assay type: cell-based, human; conditions: Homo sapiens, CCRF-CEM; Table 5; read-out: Toxicity IC50 CEM
[5] = tested on: HBV; experiment: Anti-HBV assay (AD-38 cell line); assay type: cell-based; conditions: Hepatitis B virus
Description: The anti-HBV activity of the compounds was determined by treating the AD-38 cell line carrying wild type HBV under the control of tetracycline (see Ladner S. K., Otto M. J., Barker C. S., Zaifert K., Wang G. H., Guo J. T., Seeger C. & King R. W. Antimicrob. Agents Chemother. 1997, 41, 1715-20). Removal of tetracycline from the medium [Tet (−)] results in the production of HBV. The levels of HBV in the culture supernatant fluids from cells treated with the compounds were compared with that of the untreated controls. Control cultures with tetracycline [Tet (+)] were also maintained to determine the basal levels of HBV expression.

[6] = tested on: MT-2 cells; experiment: Intracellular nucleotides formed in MT-2 cells; assay type: in vitro ADME; conditions: MT-2, four different concentrations
[7] = tested on: PBM cells; conditions: human, 4 h, 50 μM
[8] = tested on: HSV-1; experiment: HSV-1 drug susceptibility assay; assay type: cell-based; conditions: Human alphaherpesvirus 1
From the text: (§1) Agents Chemother. […] K., Otto, M. J., Schinazi, R. F. “Antiviral activities and cellular toxicities of modified 2′,3′-dideoxy-2′,3′-didehydrocytidine analogs” Antimicrob. Agents Chemother. 2002, 46, 3854-60. • ^cHSV-1 drug susceptibility assay was done as previously described in: Schinazi, R. F., Peters, J., Williams, C. C., Chance, D., Nahmias, A. J. “Effect of combinations of acyclovir with vidarabine or its 5′-monophosphate on herpes simplex virus in cell culture and in mice.” Antimicrob. Agents Chemother. 1982, 22, 499-507. • ^dHCV Replicon Assay^1: Huh 7 Clone B cells containing HCV Replicon RNA were seeded in a 96-well plate at 5000 cells/well, and the compounds were tested at 10 μM in triplicate immediately after seeding. Following five days incubation (37° C., 5% CO2), total cellular RNA was isolated by using versaGene RNA purification kit from Gentra. Replicon RNA and an internal control (TaqMan rRNA control reagents, Applied Biosystems) were amplified in a single step multiplex Real Time RT-PCR Assay. The antiviral effectiveness of the compounds was calculated by subtracting the threshold RT-PCR cycle of the test compound from the threshold RT-PCR cycle of the no-drug control (ΔCtHCV). A ΔCt of 3.3 equals a 1-log reduction (equal to 90% less starting material) in Replicon RNA levels. The cytotoxicity of the compounds was also calculated by using the ΔCt rRNA values. 77 (2′-Me-C) was used as the control. To determine EC90 and IC50 values^2, ΔCt: values were first converted into fraction of starting material^3 and then were used to calculate the % inhibition.

[9] = tested on: HCV Replicon RNA; experiment: HCV Replicon Assay (Huh 7 Clone B cells); assay type: cell-based; conditions: Hepatitis C virus, Huh-7, 120 h, tested at 10 μM, five days
From the text: as §1

Row | concentration at which phosphorylation reaches steady state [6] | major metabolite [7] | Structure (SMILES) | IC50 [1] | IC50 ([2]; Table 5) | EC50 [3] | EC90 [3] | IC50 [4] | EC90 [5] | EC50 [8] | EC90 [8] | EC50 [9] | EC90 [9] | IC50 [2]
1 | – | – | Nc1ccn([C@H]2CS[C@@H](CO)O2)c(=O)n1 [Compound 3TC, (−)-2′,3′-dideoxy-3′-thiacytidine, reference compound] | > 100 µM | > 100 µM | 0.075 µM | 0.42 µM | > 100 µM | < 10 µM | – | – | – | – | –
2 | 30 µM | RFS-457-TP as the major metabolite | [N-]=[N+]=NC1C[C@H](n2cnc3c(O)nc(N)nc32)O[C@@H]1CO (some centres unmarked) [Compound 56, 3′-Azido-2′,3′-dideoxyguanosine] | – | – | – | – | – | – | – | – | – | – | –
3 | – | – | C=CCNc1nc(N)nc2c1ncn2[C@H]1CC(N=[N+]=[N-])[C@@H](CO)O1 (some centres unmarked) [drawing 47] | > 100 µM | > 100 µM | – | – | > 100 µM | – | > 100 µM | > 100 µM | > 10 µM | > 10 µM | –
4 | – | – | C=CCN(C)c1nc(N)nc2c1ncn2[C@H]1CC(N=[N+]=[N-])[C@@H](CO)O1 (some centres unmarked) [drawing 48] | > 100 µM | – | – | – | 27 µM | – | > 100 µM | > 100 µM | > 10 µM | > 10 µM | 32 µM
5 | – | – | [N-]=[N+]=NC1C[C@H](n2cnc3c(NCCCCCO)nc(N)nc32)O[C@@H]1CO (some centres unmarked) [drawing 49] | > 100 µM | > 100 µM | – | – | > 100 µM | – | > 100 µM | > 100 µM | > 10 µM | > 10 µM | –
6 | – | – | CC(C)(CO)Nc1nc(N)nc2c1ncn2[C@H]1CC(N=[N+]=[N-])[C@@H](CO)O1 (some centres unmarked) [drawing 50] | > 100 µM | > 100 µM | – | – | > 100 µM | – | > 100 µM | > 100 µM | > 10 µM | > 10 µM | –
7 | – | – | CC(CO)Nc1nc(N)nc2c1ncn2[C@H]1CC(N=[N+]=[N-])[C@@H](CO)O1 (some centres unmarked) [drawing 51] | > 100 µM | > 100 µM | – | – | > 100 µM | – | > 100 µM | > 100 µM | > 10 µM | > 10 µM | –
8 | – | – | CN(C)c1nc(N)nc2c1ncn2[C@H]1CC(N=[N+]=[N-])[C@@H](CO)O1 (some centres unmarked) [drawing 53] | > 100 µM | > 100 µM | – | – | > 100 µM | – | > 100 µM | > 100 µM | > 10 µM | > 10 µM | –
9 | – | – | [N-]=[N+]=NC1C[C@H](n2cnc3c(NC4CC4)nc(N)nc32)O[C@@H]1CO (some centres unmarked) [drawing 56] | > 100 µM | > 100 µM | – | – | > 100 µM | – | > 100 µM | > 100 µM | > 10 µM | > 10 µM | –
10 | – | – | COCCNc1nc(N)nc2c1ncn2[C@H]1CC(N=[N+]=[N-])[C@@H](CO)O1 (some centres unmarked) [drawing 58] | > 100 µM | > 100 µM | – | – | > 100 µM | – | – | – | > 10 µM | > 10 µM | –
